Experiments:
[1] = Caco-2 cells permeability assay; assay type: in vitro ADME; details: human
Protocol: Caco-2 cell monolayers (passages: 94 to 105) were grown on permeable filter support and used for transport study on day 21 after seeding. Before the experiment, a drug solution of 10 μM was prepared and warmed to 37°C. The Caco-2 filters were washed with pre-warmed HBSS before the experiment, and, thereafter, the experiment was started by applying the donor solution on the apical or basolateral side. The transport experiments were carried out at pH 7.4 in both the apical and basolateral chamber. The experiments were performed at 37°C and with a stirring rate of 500 rpm. The receiver compartment was sampled at 15, 30, and 60 min, and, at 60 min, also a final sample from the donor chamber was taken to calculate the mass balance of the compound. The samples (100 μl) were transferred to a 96-well plate containing 100 μl of methanol, and Warfarin as internal standard and was sealed until LC-MS/MS analysis.

H1 receptor = target: T1, H1 receptor (Homo sapiens, UniProt P35367); experiment: PRESTO-TANGO β-arrestin recruitment; assay type: cell-based; details: concentration-response curves (fig. S10)
T1 construct: TANGO fusion module (own knowledge, Kroeze et al.: C-terminal V2 tail, TEV site and tTA); 1000000068; host or cells: HTLA (HEK293-derived)
T1 sequence (P35367 whole entry, the tested form may be a part): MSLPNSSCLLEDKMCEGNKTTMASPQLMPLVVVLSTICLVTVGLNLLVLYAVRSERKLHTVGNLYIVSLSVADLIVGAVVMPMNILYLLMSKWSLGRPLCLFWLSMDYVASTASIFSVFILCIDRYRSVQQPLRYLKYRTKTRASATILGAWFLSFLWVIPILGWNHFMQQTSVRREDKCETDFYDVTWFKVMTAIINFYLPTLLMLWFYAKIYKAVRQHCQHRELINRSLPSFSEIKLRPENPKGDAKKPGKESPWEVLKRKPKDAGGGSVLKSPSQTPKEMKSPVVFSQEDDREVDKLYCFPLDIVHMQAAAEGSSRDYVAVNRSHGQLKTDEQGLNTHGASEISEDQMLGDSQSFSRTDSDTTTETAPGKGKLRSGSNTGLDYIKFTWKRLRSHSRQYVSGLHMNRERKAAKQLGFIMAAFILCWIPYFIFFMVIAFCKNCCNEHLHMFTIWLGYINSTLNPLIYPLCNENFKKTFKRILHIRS
Protocol: (§1) Assessment of receptor activation by compounds at all human aminergic receptors were carried out using a modified version of the PRESTO-TANGO method. […] The plate was spun down, and 5 μl of a 1:25 dilution (in DPBS) of polyethylenimine (PEI) derivative (Transporter 5, Polysciences) was added (1:4 cDNA to PEI ratio) and incubated for 20 min at room temperature (RT). […] Luminescence signal was detected using a plate-reader (SPARK, Tecan) with 100-ms integration time and a 100-ms delay between well reads.

[2] = Metabolic stability in liver microsomes; details: human liver microsomes, 1 μM
WT and TAAR1-KO mice = experiment: Pre-pulse inhibition (PPI) behavioral assay; assay type: in vivo; details: compound 65 1 mg/kg, risperidone 0.2 mg/kg i.p.
Protocol: Measurements were performed using startle response chambers (San Diego Instruments, San Diego, CA, USA). Each chamber is sound-isolated and contains a Plexiglass animal enclosure attached to a platform and a loudspeaker that can produce both continuous white noise and acoustic pulses of varying intensities. The animal enclosure is large enough for the animal to turn around and make other movements to reduce restraint stress. Mouse startle responses to acoustic stimuli are transformed by a piezoelectric transducer under the platform into an analog signal. The transducers were calibrated before each experiment using a standardization unit (San Diego Instruments, San Diego, CA, USA), and the speakers were calibrated using a Type 2670 Microphone Preamplifier, a Type 4230 Sound Level Calibrator, and a Type 2610 Measuring Amplifier (Brüel & Kjær, Nærum, Denmark). To habituate the mice to the chambers, they were placed in the enclosure for 5 min, with 65-dB background white noise, on three different days before the start of experiments. PPI measurements were then conducted on each mouse on four occasions separated by 96 hours. The first occasion was a mock test session where all mice were injected with vehicle, serving to reduce the effect of novelty on subsequent sessions. The next three sessions were true test sessions with injection of either compound 65, risperidone, or vehicle. The R package agricolae was used to generate a randomized block design, randomizing treatment order across sex, genotype, and test session.
Animals were brought to the testing room for habituation 60 min before the starting of tests. Thirty minutes before PPI measurements, mice were injected with either compound 65 (1 mg/kg), risperidone (0.2 mg/kg), or vehicle intraperitoneally. Each test session started with a 5-min background noise (65-dB white noise) habituation period. The background noise continued throughout the test session. The habituation period was followed by four blocks of trials, with the first and last blocks consisting of five pulse-only trials (40-ms, 120-dB pulse). During block 2, five trial types were presented five times each in a pseudo-randomized order. The trial types included pulse only, no stimulus (NOSTIM), and three different pre-pulse trials in which 20 ms pre-pulses of different intensities (68, 71, or 77 dB) preceded the startle pulse (120 dB) by a 100-ms interval. Block 3 contained the same numbers and types of trials as block 2, but in a different pseudorandom order. […] PPI data are shown as PPI%, which was calculated as [1 − (pre-pulse trials/startle-only trials)] × 100. Mean PPI was calculated by adding the average PPI% for all pre-pulse intensities (3, 6, and 12 dB) and dividing it by the number (i.e., 3) of pre-pulse intensities.

α2A receptor = target: T2, α2A receptor (Homo sapiens, UniProt P08913); experiment: PRESTO-TANGO β-arrestin recruitment; assay type: cell-based
T2 construct: TANGO fusion module (own knowledge, Kroeze et al.: C-terminal V2 tail, TEV site and tTA); 1000000068; host or cells: HTLA (HEK293-derived)
T2 sequence (P08913 1-465): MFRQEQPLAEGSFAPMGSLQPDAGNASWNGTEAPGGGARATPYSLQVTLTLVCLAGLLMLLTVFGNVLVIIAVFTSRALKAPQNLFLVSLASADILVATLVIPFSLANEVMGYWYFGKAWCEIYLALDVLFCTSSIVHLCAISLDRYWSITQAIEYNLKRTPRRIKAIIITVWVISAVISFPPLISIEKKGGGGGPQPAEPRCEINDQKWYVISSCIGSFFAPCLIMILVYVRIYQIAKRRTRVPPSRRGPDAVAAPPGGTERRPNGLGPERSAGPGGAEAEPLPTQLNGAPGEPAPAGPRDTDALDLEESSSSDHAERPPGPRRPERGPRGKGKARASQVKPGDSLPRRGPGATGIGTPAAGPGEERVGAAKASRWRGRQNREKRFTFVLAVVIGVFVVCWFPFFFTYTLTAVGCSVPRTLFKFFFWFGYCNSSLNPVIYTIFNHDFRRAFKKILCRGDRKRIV
Protocol: as §1

[3] = Plasma protein binding (rapid equilibrium dialysis); assay type: in vitro ADME; details: pH 7.4
Protocol: Pooled human plasma was provided by Uppsala Academic Hospital and was collected from two donors (nonsmoking) (citric acid). In brief, 0.2 ml of the plasma (50% plasma and 50% isotonic buffer) test solution (typically, 10 μM final compound concentration) was transferred to the membrane tube in the rapid equilibrium dialysis (RED) insert (Thermo Fisher Scientific). Isotonic phosphate buffer (0.35 ml; pH 7.4) was added to the other side of the membrane. The 96-well base plate was then sealed with an adhesive plastic film (Scotch Pad) to prevent evaporation. The sample was incubated with rapid rotation (>900 rpm) on a Kisker rotational incubator at 37°C for 4 hours to achieve equilibrium. A stability test of the test solution was prepared (to allow detection of drug degradation), and 100 μl of the plasma test solution (in a plastic vial or on a sealed plate) was incubated at 37°C for 4 hours (or as long as the dialysis time). The plasma test solution was frozen directly after the administration to prevent any degradation. Before LC-MS/MS analysis, the plasma and buffer samples were treated with the addition of methanol (1:3) containing Warfarin as internal standard to precipitate proteins. The standard curve was created using the plasma standard. The plate was then sealed and centrifuged, and the supernatant was analyzed by LC-MS/MS ([78]).

## CC1=C(c2ccco2)CNCC1 [Compound 65]
[1]
  efflux ratio at 60 min, 10 μM: 2.2
[1]; apical-to-basal, 10 μM, pH 7.4
  Papp A→B at 60 min, 10 μM: 77 ×10⁻⁶ cm/s
[1]; basal-to-apical, 10 μM, pH 7.4
  Papp B→A at 60 min, 10 μM: 168 ×10⁻⁶ cm/s
H1 receptor
  agonism at the H1 receptor: lacked agonism
[2]
  intrinsic clearance CLint: 16 μl/min per mg
WT and TAAR1-KO mice; TAAR1-KO mice
  effect on PPI: did not observe any change in PPI
WT and TAAR1-KO mice; WT mice
  effect on PPI: elevated PPI at both 3- and 6-dB pre-pulse levels
α2A receptor
  EC50: 1000 nM
α2A receptor; concentration-response curves
  Emax: 110%
α2A receptor; panel screen
  agonism at the α2A receptor: agonism
[3]; human, pooled human plasma (50% plasma and 50% isotonic buffer)
  fraction unbound at 4 h, 10 μM: 0.61
[3]; mouse, mouse plasma (50% plasma and 50% isotonic buffer)
  fraction unbound at 4 h, 10 μM: 0.81
